Assay [1] addresses T1, C640S mutant glucocorticoid receptor (Rattus norvegicus, UniProt P06536, C640S/D98G).
T1 construct: Thus the full length receptor was removed from the VARO vector with BamHI and inserted into the SVL vector; expressed in transfected cells; host or cells: COS-7 (cytosol)
T1 sequence (P06536 1-795 D98G/C640S): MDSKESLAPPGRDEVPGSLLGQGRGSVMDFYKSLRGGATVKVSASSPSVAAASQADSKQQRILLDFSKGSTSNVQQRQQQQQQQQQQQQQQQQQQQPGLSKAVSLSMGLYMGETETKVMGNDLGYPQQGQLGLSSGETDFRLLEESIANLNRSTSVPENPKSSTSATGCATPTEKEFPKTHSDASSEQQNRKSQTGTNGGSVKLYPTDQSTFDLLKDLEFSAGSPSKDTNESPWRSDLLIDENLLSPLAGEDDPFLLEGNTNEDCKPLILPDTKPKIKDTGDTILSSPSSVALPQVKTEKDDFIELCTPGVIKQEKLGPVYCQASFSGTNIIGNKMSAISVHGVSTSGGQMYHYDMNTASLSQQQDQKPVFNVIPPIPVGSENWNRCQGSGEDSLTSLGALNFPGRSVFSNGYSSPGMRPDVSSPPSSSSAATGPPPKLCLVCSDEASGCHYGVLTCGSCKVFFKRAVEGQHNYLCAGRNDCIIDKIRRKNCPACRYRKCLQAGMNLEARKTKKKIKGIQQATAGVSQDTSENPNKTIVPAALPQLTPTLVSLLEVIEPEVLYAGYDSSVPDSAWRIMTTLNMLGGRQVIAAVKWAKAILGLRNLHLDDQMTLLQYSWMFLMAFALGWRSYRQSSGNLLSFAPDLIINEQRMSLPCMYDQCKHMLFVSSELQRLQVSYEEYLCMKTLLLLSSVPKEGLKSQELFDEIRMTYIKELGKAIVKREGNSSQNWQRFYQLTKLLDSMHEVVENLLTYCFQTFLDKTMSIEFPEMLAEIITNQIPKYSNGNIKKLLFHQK
Briefly: Competition binding assay with [3H]Dex, COS-7 cytosol, C640S receptor. As for the experimental part:
(§1) Monolayer cultures of COS-7 cells were grown in DMEM (Gibco) supplemented with 5% fetal bovine serum (FBS) (Biofluids) at 37° C. in a 5% CO2 incubator. Standard calcium phosphate transfection methods were used to introduce the wild type and mutant receptor expression vectors (pSVL) into COS-7 cells (100 mm plates [Costar] at a cell density of about 10^6 /plate were each treated with 10 μg of plasmid DNA). After ~16 hrs of incubation at 37° C. in a 5% CO2 incubator, the excess calcium phosphate and precipitate were removed by washing with phosphate buffered saline (PBS). The cells were incubated at 37° C. for another ~48 hr in DMEM/ 5% FBS and harvested by trypsinization followed by centrifugation (for 10 min at 1570 ×g) and washing 3 times with PBS. The washed cells were stored at -80° C. until used.
COS-7 cell cytosol containing the steroid-free receptors was prepared by cell lysis at -80° C. and centrifugation at 15,000 ×g and labeled as described for HTC cells (S. S. Simons and P. A. Miller, Biochem 23:6876-6882 (1984)). […] The specifically bound [^3 H]Dex was determined by first adding a 10% dextran-coated charcoal solution (added volume =20% of reaction solution volume) to remove free steroid and then subtracting the nonspecific binding seen in the presence of excess nonradioactive Dex.
(§2) Duplicate aliquots (72 μl) of COS-7 cell cytosol (33.5% in pH 8.8 TAPS/27 mM Na2 MoO4 buffer) were treated with 4 μl each of [^3 H]Dex (in pH 8.8 TAPS buffer) and various concentrations of non-radioactive competing steroid (in 20% EtOH in pH 8.8 TAPS buffer) (final concentration of [^3 H]Dex ≈3 ×10^-8 M). The average specific binding was determined after 2.5 or 24 hr of incubation as described above, expressed as percentage of the non-competed control and plotted versus the log10 of the concentration of the competing steroid.
The specificity of steroid binding was determined by Rodbard correction (Rodbard, 1973) of the data from a competition binding assay (S. S. Simons et al., Biochem. Biophys. Res. Comm. 86:793-800 (1979); Miller and Simons, 1988). […]

Assay [2] has as its target T2, C656G mutant glucocorticoid receptor (Rattus norvegicus, UniProt P06536, C656G/D98G).
T2 sequence (P06536 1-795 D98G/C656G): T1 sequence (P06536 1-795 D98G/C640S) with S640C, C656G
Briefly: Competition binding assay with [3H]Dex, COS-7 cytosol, C656G receptor. Further details: Thus the full length receptor was removed from the VARO vector with BamHI and inserted into the SVL vector; expressed in transfected cells; host or cells: COS-7 (cytosol). As for the experimental part: as §1
COS-7 cell cytosol containing the steroid-free receptors was prepared by cell lysis at -80° C. and centrifugation at 15,000 ×g and labeled as described for HTC cells (S. S. Simons and P. A. Miller, Biochem 23:6876-6882 (1984)). Briefly, 30% cytosol solutions containing ~21 mM Na2 MoO4 were prepared with three parts COS-7 cell cytosol, 2 parts pH 9.5 TAPS buffer, and 5 parts pH 8.8 TAPS buffer. The total EtOH in each experiment was kept constant and at a level of ≤1%. […] After incubation for 2.5 hr, the [^3 H]Dex-Mes-labeled solutions were quick-frozen at -78° C. for subsequent SDS-polyacrylamide gel electrophoresis analysis. The specifically bound [^3 H]Dex was determined by first adding a 10% dextran-coated charcoal solution (added volume =20% of reaction solution volume) to remove free steroid and then subtracting the nonspecific binding seen in the presence of excess nonradioactive Dex.
as §2
The specificity of steroid binding was determined by Rodbard correction (Rodbard, 1973) of the data from a competition binding assay (S. S. Simons et al., Biochem. Biophys. Res. Comm. 86:793-800 (1979); Miller and Simons, 1988). The initial data were collected from 2.5 hr binding assays because of concerns about the stability of the receptors over longer times.

The values below come from US5215916A, “Super glucocorticoid receptors: receptors with increased affinity and specificity for glucocorticoid steriods” (priority 1991, dated 1993).

Changes are numbered by the printed parent chain.

`C[C@]12CC[C@@H]3c4ccc(O)cc4CC[C@H]3[C@@H]1CC[C@@H]2O` [17β-Estradiol, 17β-estradiol]: the “Relative Ka of Steroid Binding to Receptor” value (“Relative Ka” for short) in assay [1] came out at 0.010 ± 0.007; in assay [2], 0.0017 ± 0.0006.

Regarding `C[C@]12CCC(=O)C=C1CC[C@@H]1[C@@H]2[C@@H](O)C[C@]2(C=O)[C@@H](C(=O)CO)CC[C@@H]12` [Aldosterone, aldosterone], in assay [1], the “Relative Ka” value was determined as 0.18 ± 0.002. Besides, the “effect of replacement of Cys-656 with glycine on relative affinity” value in assay [2] (C656G vs wild type, compared with effect seen for C661S, 2.5 hr incubation) is “less of an effect”. Besides, the “change in absolute affinity for the glucocorticoid receptor as a result of C656G mutation” value in assay [2] (C656G vs wild type, from Table 1B and Table 2, aldosterone only "perhaps") is “decreased”.

Take `CC#C[C@]1(O)CC[C@H]2[C@@H]3CCC4=CC(=O)CCC4=C3[C@@H](c3ccc(N(C)C)cc3)C[C@@]21C` [RU486]: the “Relative Ka” value turned out to be 6.8 ± 2.2 in assay [1] and 2.5 ± 0.7 in assay [2].
